How the values were obtained:
Assay type in all cases: cell-based
[1] = target: T1, ERα (Homo sapiens, UniProt P03372); assay: Degradation of ERα in T-47D cells (immunoblotting, 4 h); design: host or cells: T-47D
T1 sequence (P03372 1-595): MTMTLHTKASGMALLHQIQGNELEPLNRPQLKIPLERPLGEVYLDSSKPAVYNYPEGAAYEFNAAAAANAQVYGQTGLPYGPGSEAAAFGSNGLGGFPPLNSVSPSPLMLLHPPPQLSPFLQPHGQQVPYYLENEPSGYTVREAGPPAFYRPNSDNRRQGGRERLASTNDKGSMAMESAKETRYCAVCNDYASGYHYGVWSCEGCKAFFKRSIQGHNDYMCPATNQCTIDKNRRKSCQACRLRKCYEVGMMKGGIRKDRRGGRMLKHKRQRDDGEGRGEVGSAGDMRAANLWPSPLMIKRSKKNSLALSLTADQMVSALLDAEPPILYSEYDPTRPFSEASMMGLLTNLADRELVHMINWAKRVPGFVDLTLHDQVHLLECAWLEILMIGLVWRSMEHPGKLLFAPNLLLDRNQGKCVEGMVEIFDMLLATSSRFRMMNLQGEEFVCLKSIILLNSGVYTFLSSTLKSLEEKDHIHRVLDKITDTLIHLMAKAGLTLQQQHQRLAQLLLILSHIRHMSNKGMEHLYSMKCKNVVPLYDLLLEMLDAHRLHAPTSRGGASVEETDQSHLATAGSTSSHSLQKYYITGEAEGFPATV
Outline: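 ERα protein levels were assessed by immunoblot of RIPA lysates (with protease inhibitor) after 4 h exposure at 37°C. Compound was added in DMSO to T-47D cells at final concentrations of 0.15-1000 nM.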

[2] = target: T1, ERα; assay: Degradation of ERα in MCF-7 cells (immunoblotting, 4 h)
Outline: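 Degradation rate reflects ERα band intensity, corrected to an internal reference protein, relative to control. Values come from Western blotting of lysates from MCF-7 cells exposed 4 h at 37°C to compounds at final concentrations of 0.15-1000nM.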

[3] = system: MCF-7 cells; assay: Inhibition of cell proliferation of MCF-7 cells (CCK-8, 9 days); settings: treated for 9 days, CCK-8 kit (Table 6)
Outline: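 Read-out was CCK-8 viability after 9-day continuous exposure (37°C, 5% CO2) of MCF-7 cells plated at 800/well in 10% FBS DMEM across several compound concentrations. Values are proliferation IC50s.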

Row | Compound | Degradation rate (%) of ERα in T-47D cells ([1]; 1nM compound) [%] | Degradation rate (%) of ERα in T-47D cells ([1]; 10nM compound) [%] | Degradation rate (%) of ERα in MCF-7 cells ([2]; 1nM compound) [%] | Degradation rate (%) of ERα in MCF-7 cells ([2]; 10nM compound) [%] | IC50 [3] [nM]
1 | O=C1CCC(N2Cc3c(ccc4c3OCC43CCN(c4ccc(C(=O)N5CCN(c6ccc([C@@H]7c8ccc(O)cc8CC[C@@H]7c7ccccc7)cc6)CC5)nc4)CC3)C2=O)C(=O)N1 (some centres unmarked) [J3] | 42 | 63 | 34 | 49 | 8.23
2 | O=C1CCC(N2Cc3c(ccc4c3OCC43CCN(C4C5CCC4CN(C(=O)C4CCN(c6ccc([C@@H]7c8ccc(O)cc8CC[C@@H]7c7ccccc7)cc6)CC4)C5)CC3)C2=O)C(=O)N1 (some centres unmarked) [J4] | 8 | 51 | 32 | 60 | 22.6
3 | O=C1CCC(N2Cc3c(ccc4c3OCC43CCN(C4CCN(CC5CCN(c6ccc([C@@H]7c8ccc(O)cc8CC[C@@H]7c7ccccc7)cc6)CC5)CC4F)CC3)C2=O)C(=O)N1 (some centres unmarked) [J5] | 46 | 81 | 40 | 78 | 4.63
4 | O=C1CCC(N2Cc3c(ccc4c3OCC43CCN([C@@H]4CCN(CC5CCN(c6ccc([C@@H]7c8ccc(O)cc8CC[C@@H]7c7ccccc7)cc6)CC5)C[C@@H]4F)CC3)C2=O)C(=O)N1 (some centres unmarked) [J6] | 39 | 81 | 52 | 68 | 9.31
5 | COC(=O)[C@H]1CC(N2CCC3(CC2)COc2c3ccc3c2CN(C2CCC(=O)NC2=O)C3=O)CCN1CC1CCN(c2ccc([C@@H]3c4ccc(O)cc4CC[C@@H]3c3ccccc3)cc2)CC1 (some centres unmarked) [J7] | 16 | 67 | 29 | 75 | 486
6 | O=C1CCC(N2Cc3c(ccc4c3OCC43CCN(C(=O)C4CCN(CC5CCN(c6ccc([C@@H]7c8ccc(O)cc8CC[C@@H]7c7ccccc7)cc6)CC5)CC4)CC3)C2=O)C(=O)N1 (some centres unmarked) [J8] | 79 | 81 | 78 | 85 | 4.89
7 | O=C1CCC(N2Cc3c(ccc4c3OCC43CCN(C(=O)C4CN(CC5CCN(c6ccc([C@@H]7c8ccc(O)cc8CC[C@@H]7c7ccccc7)cc6)CC5)C4)CC3)C2=O)C(=O)N1 (some centres unmarked) [J9] | 78 | 83 | 63 | 69 | 5.64
8 | CN(CC(=O)N1CCC2(CC1)COc1c2ccc2c1CN(C1CCC(=O)NC1=O)C2=O)CC1CCN(c2ccc([C@@H]3c4ccc(O)cc4CC[C@@H]3c3ccccc3)cc2)CC1 (some centres unmarked) [J10] | 70 | 88 | 50 | 73 | 6.12
9 | C[C@@H]1Cc2c(ccc3[nH]ncc23)C(c2ccc(N3CCC4(CCN(CC(=O)N5CCC6(CC5)COc5c6ccc6c5CN(C5CCC(=O)NC5=O)C6=O)C4)CC3)cn2)N1CC(F)(F)F (some centres unmarked) [J11] | 52 | 82 | 40 | 75 | 4370
10 | C[C@@H]1Cc2c(ccc3[nH]ncc23)C(c2ccc(N3CCC4(CCN(C(=O)CN5CCC6(CC5)COc5c6ccc6c5CN(C5CCC(=O)NC5=O)C6=O)C4)CC3)cn2)N1CC(F)(F)F (some centres unmarked) [J14] | 55 | 74 | 5 | 39 | 9660
11 | O=C1CCC(N2C(=O)c3cc4c(cc3C2=O)OC2(CCN(C3CC5(CCN(c6ccc([C@@H]7c8ccc(O)cc8CC[C@@H]7c7ccccc7)cc6)CC5)C3)CC2)C4)C(=O)N1 (some centres unmarked) [K1] | 7 | 27 | -2 | -3 | 511
12 | O=C1CCC(N2Cc3c(ccc4c3OC3(CC4)CCN(C4CN(C5CCN(c6ccc([C@@H]7c8ccc(O)cc8CC[C@@H]7c7ccccc7)cc6)CC5)C4)CC3)C2=O)C(=O)N1 (some centres unmarked) [K2] | 8 | 16 | -10 | 3 | 1990
13 | O=C1CCC(N2Cc3c(ccc4c3OCC43CCN(C4CC5(CCN(C6CCN(c7ccc([C@@H]8c9ccc(O)cc9CC[C@@H]8c8ccccc8)cc7)CC6)CC5)C4)CC3)C2=O)C(=O)N1 (some centres unmarked) [K4] | 42 | 72 | 48 | 53 | < 0.256
14 | O=C1CCC(N2Cc3c(ccc4c3OCC43CCN(CC4CCN(C5CCN(c6ccc([C@@H]7c8ccc(O)cc8CC[C@@H]7c7ccccc7)cc6)CC5)CC4)CC3)C2=O)C(=O)N1 (some centres unmarked) [K6] | 36 | 58 | 17 | 62 | 724
15 | O=C1CCC(N2Cc3c(ccc4c3OCC43CCN(C4CC5(C4)CN(C4CCN(c6ccc([C@@H]7c8ccc(O)cc8CC[C@@H]7c7ccccc7)cc6)CC4)C5)CC3)C2=O)C(=O)N1 (some centres unmarked) [K12] | 18 | 60 | 3 | 44 | 30
16 | O=C1CCC(N2Cc3cc4c(cc3C2=O)OC2(CC4)CN(C3CCC4(CC3)CCN(C3CCN(c5ccc([C@@H]6c7ccc(O)cc7CC[C@@H]6c6ccccc6)cc5)CC3)CC4)C2)C(=O)N1 (some centres unmarked) [K14] | 20 | 67 | -3 | 14 | 220
17 | O=C1CCC(N2Cc3c(ccc4c3OCC43CCN(C4CC5(CCC6(CCN(C7CCN(c8ccc([C@@H]9c%10ccc(O)cc%10CC[C@@H]9c9ccccc9)cc8)CC7)CC6)CC5)C4)CC3)C2=O)C(=O)N1 (some centres unmarked) [K15] | 18 | 35 | 16 | 42 | 196
18 | CC1CC(N2CCC3(CC2)COc2c3ccc3c2CN(C2CCC(=O)NC2=O)C3=O)CCN1C1CC2(CCN(c3ccc(C4c5ccc(O)cc5CCC4c4ccccc4)cc3)CC2)C1 (centres unmarked) [K18] | 42 | 79 | 43 | 80 | 12.6
19 | CC1(C)CC(N2CCC3(CC2)COc2c3ccc3c2CN(C2CCC(=O)NC2=O)C3=O)CCN1C(=O)C1CCN(c2ccc([C@@H]3c4ccc(O)cc4CC[C@@H]3c3ccccc3)cc2)CC1 (some centres unmarked) [K28] | 62 | 86 | 66 | 86 | 8.18
20 | CN(C)C(=O)[C@@H]1CC(N2CCC3(CC2)COc2c3ccc3c2CN(C2CCC(=O)NC2=O)C3=O)CCN1C(=O)C1CCN(c2ccc([C@@H]3c4ccc(O)cc4CC[C@@H]3c3ccccc3)cc2)CC1 (some centres unmarked) [K29] | 46 | 79 | 43 | 66 | 19.5
21 | O=C1CCC(N2Cc3c(ccc4c3OCC43CCN(C4CCN(C(=O)C5CCN(c6ccc(C7c8ccc(O)cc8CCC7c7ccccc7)cc6)CC5)C(C(=O)N5CCCC5)C4)CC3)C2=O)C(=O)N1 (centres unmarked) [K30] | 63 | 73 | 48 | 55 | 7.34
22 | O=C1CCC(N2Cc3c(ccc4c3OCC43CCN(C4CCN(C(=O)C5CCN(c6ccc(C7c8ccc(O)cc8CCC7c7ccccc7)cc6)CC5)C(C(=O)N5CCCCC5)C4)CC3)C2=O)C(=O)N1 (centres unmarked) [K31] | 73 | 79 | 61 | 65 | 1.53
